One assay deals with Blood. Kind of assay: Inhibition of DHET production in rat whole blood at 1 uM after 1 hr. The class given is functional. Set-up: Activity: scale not given: the % may be the effect or the level left.
Assay [1] deals with Sodium channel protein type 5 subunit alpha (Homo sapiens, UniProt Q14524). In words: Inhibition of Voltage-gated sodium channel subunit alpha Nav1.5.
The target of the next assay is Cytochrome P450 2D6 (Homo sapiens, UniProt P10635). Kind of assay: Inhibition of CYP2D6. Type of assay: ADME.
A short description of assay [2]: Inhibition of potassium channel IKr.
Assay [3] addresses T1, Bifunctional epoxide hydrolase 2 (Homo sapiens, UniProt P34913).
T1 sequence (P34913 whole entry): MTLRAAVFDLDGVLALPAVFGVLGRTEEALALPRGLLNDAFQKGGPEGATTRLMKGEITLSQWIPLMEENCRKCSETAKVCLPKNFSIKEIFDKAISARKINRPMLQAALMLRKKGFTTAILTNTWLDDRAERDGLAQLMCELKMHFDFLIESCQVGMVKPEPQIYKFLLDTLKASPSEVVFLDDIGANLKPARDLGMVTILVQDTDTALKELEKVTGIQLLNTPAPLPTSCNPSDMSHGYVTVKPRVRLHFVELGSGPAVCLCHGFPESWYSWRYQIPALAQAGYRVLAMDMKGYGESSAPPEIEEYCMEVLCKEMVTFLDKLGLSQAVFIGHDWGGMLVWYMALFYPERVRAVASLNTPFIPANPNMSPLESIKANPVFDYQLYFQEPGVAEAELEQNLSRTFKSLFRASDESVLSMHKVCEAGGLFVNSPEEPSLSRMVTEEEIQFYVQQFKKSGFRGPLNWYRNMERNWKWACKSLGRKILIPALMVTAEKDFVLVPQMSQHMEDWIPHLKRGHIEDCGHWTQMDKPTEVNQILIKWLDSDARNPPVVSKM
In words: Inhibition of human soluble epoxide hydrolase.

In assay [4] the target is T1, Bifunctional epoxide hydrolase 2. In words: Inhibition of human soluble epoxide hydrolase in HEK293 cells assessed as DHET production. Type of assay: cell-based.
The target of the next assay is T2, Epoxide hydrolase 1 (Homo sapiens, UniProt P07099).
T2 sequence (P07099 whole entry): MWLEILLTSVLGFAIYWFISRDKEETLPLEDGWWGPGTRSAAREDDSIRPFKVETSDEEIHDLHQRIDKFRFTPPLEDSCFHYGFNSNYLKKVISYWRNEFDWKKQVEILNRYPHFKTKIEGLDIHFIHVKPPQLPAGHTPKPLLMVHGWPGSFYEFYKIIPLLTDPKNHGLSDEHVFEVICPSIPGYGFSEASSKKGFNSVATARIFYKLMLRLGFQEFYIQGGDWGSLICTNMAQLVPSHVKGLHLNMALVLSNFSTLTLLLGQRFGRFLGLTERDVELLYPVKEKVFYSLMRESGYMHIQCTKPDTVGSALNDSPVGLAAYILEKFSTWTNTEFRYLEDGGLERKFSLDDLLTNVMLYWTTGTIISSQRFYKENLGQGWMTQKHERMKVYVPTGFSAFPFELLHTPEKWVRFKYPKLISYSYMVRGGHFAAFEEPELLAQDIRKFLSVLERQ
In words: Inhibition of human microsomal epoxide hydrolase.

The target of a further assay is Cytochrome P450 3A4 (Homo sapiens, UniProt P08684). In words: Inhibition of CYP3A4. The class given is ADME.
The target in the next assay is Cytochrome P450 2C9 (Homo sapiens, UniProt P11712). In words: Inhibition of CYP2C9. Type of assay: ADME.
The target of assay [5] is T3, Bifunctional epoxide hydrolase 2 (Rattus norvegicus, UniProt P80299).
T3 sequence (P80299 whole entry): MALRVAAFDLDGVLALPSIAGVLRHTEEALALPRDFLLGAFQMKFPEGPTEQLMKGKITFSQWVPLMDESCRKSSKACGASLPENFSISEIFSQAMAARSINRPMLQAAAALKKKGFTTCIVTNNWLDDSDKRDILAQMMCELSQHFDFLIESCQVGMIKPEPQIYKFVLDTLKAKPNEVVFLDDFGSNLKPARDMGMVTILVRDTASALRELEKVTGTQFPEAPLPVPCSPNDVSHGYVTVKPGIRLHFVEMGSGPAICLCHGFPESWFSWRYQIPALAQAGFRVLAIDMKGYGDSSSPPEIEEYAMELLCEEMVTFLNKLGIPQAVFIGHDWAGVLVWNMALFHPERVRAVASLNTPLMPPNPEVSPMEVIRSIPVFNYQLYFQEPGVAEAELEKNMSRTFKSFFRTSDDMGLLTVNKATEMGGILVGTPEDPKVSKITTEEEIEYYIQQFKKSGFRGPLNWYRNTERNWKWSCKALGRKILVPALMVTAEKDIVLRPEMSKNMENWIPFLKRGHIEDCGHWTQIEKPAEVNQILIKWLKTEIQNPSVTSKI
In words: Inhibition of rat soluble epoxide hydrolase.

Assay [6] is described as follows: Binding affinity to […] channel diltiazem binding site.
For assay [7], the target named is Voltage-dependent L-type calcium channel subunit alpha-1C (Homo sapiens, UniProt Q13936). In words: Activity at Cav 1.2 channel.
Voltage-dependent L-type calcium channel subunit alpha-1C, sequence (Q13936 whole entry): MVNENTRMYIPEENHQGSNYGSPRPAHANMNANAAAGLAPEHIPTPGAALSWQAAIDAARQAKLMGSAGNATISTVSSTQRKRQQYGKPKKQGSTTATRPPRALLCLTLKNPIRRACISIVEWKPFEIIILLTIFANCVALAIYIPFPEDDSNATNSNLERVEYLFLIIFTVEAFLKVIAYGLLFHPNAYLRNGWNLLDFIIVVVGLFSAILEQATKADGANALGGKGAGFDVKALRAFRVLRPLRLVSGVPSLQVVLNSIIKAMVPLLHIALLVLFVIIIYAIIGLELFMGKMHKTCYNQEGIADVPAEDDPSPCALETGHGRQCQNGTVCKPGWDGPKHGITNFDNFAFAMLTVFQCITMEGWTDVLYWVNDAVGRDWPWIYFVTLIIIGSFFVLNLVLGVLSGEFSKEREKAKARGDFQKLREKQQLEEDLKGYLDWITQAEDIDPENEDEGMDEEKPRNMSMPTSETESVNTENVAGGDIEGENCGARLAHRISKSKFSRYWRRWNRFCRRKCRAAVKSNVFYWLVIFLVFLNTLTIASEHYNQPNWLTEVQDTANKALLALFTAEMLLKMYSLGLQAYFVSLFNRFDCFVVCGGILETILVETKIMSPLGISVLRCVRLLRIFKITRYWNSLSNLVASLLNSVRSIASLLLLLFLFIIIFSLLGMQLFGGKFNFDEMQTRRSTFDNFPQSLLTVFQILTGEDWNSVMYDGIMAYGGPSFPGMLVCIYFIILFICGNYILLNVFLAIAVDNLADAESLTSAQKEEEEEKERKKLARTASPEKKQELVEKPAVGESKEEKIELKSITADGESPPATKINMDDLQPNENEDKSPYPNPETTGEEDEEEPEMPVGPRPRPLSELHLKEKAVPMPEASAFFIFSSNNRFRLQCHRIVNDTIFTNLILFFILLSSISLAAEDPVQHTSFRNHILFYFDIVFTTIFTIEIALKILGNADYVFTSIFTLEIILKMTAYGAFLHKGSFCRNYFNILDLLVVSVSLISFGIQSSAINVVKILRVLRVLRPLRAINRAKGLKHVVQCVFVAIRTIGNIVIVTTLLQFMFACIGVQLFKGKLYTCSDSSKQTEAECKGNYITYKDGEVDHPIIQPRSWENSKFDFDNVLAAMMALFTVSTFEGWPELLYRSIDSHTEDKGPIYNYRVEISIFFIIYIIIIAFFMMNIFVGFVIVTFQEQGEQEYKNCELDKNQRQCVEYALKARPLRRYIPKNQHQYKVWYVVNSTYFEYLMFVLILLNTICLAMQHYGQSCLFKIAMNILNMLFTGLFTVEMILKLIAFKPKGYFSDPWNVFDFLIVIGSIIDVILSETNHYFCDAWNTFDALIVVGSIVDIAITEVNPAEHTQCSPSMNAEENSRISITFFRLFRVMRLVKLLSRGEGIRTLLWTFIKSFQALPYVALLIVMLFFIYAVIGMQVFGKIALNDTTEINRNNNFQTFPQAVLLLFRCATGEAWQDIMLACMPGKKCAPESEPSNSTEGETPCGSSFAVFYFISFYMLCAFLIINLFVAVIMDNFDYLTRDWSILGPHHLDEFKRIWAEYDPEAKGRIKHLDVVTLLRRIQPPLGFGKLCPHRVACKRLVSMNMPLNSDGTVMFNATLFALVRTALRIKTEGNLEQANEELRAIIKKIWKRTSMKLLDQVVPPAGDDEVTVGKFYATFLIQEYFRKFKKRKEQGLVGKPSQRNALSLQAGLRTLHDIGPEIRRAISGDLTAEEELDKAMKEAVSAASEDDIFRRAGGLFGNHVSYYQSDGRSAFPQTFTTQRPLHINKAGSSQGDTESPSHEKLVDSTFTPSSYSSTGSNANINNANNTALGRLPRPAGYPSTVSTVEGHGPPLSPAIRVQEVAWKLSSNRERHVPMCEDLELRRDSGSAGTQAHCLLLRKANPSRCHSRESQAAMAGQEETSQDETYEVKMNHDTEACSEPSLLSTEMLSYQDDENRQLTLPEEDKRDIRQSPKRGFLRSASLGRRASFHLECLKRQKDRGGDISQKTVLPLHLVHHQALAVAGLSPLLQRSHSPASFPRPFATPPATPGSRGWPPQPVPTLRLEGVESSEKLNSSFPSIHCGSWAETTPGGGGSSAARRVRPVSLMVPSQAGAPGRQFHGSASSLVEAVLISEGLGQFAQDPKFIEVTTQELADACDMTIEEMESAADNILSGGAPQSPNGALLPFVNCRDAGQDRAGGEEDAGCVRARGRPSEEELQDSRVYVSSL

Cytochrome P450 3A4, sequence (P08684 whole entry): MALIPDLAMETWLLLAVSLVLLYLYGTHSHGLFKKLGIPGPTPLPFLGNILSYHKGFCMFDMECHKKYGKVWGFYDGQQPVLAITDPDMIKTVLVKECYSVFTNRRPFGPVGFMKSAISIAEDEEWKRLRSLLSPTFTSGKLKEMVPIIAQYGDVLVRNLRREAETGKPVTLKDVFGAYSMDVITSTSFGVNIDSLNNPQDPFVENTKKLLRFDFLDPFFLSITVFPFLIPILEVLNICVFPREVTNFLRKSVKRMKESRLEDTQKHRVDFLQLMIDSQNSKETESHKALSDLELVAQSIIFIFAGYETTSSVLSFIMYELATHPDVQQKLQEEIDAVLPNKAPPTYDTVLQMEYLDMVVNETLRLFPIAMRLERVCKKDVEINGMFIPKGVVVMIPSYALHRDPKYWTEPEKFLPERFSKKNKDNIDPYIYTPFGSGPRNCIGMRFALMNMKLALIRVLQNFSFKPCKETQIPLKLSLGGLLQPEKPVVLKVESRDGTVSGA
Cytochrome P450 2D6, sequence (P10635 whole entry): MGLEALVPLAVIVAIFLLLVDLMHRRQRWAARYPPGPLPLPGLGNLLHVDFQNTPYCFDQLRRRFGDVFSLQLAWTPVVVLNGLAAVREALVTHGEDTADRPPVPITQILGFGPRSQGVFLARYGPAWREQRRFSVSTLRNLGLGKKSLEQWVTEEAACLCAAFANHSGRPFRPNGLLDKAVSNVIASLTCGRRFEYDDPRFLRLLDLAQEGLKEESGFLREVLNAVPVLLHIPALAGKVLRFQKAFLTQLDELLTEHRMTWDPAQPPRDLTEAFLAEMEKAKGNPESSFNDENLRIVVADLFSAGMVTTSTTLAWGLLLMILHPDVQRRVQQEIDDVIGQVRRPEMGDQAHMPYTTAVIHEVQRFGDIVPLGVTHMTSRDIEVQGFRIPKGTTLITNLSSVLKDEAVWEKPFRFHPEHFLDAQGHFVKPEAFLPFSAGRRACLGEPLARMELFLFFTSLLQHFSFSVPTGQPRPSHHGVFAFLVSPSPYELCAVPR
Cytochrome P450 2C9, sequence (P11712 whole entry): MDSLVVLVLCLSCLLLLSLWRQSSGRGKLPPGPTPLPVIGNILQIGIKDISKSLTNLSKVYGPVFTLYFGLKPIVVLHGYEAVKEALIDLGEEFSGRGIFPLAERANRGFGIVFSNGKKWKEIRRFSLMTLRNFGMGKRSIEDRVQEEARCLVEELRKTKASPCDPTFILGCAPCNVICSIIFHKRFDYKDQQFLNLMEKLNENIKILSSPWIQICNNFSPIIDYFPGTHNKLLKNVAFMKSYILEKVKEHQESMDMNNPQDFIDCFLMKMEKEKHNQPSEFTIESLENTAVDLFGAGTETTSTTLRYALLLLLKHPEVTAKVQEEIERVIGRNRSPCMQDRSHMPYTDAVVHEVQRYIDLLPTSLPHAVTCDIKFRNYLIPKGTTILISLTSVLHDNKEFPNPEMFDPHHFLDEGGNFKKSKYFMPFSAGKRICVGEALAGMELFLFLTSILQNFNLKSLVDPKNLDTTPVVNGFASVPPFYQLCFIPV

Usually IC50 stands for the point on the concentration scale where inhibition reaches its midpoint. In the assay with Blood, `O=C(c1ccc(C(F)(F)F)cc1)N1CCC2(CCc3ccccc3O2)CC1` gave an Activity of 48%. For the same compound, the half-inhibitory concentration (IC50) in [1] was greater than 10 µM; at Cytochrome P450 2D6 it was greater than 10 µM; in [2], 1 µM; in [3], 0.004 µM; in assay [4] it was less than 0.001 µM; against Epoxide hydrolase 1 it was 22 µM. Besides, the half-maximal inhibitory concentration (IC50) against Cytochrome P450 3A4 was greater than 10 µM; against Cytochrome P450 2C9, greater than 10 µM; in assay [5], 0.01 µM; in assay [6], 2 µM.

For the compound `O=C(CCc1ccccc1)N1CCC2(CCc3cc(F)ccc3O2)CC1`, the IC50 is less than 10 µM in [1]; less than 10 µM against Cytochrome P450 2D6; 6 µM in assay [2]; 0.007 µM in [3]; 0.003 µM in assay [4]; greater than 100 µM against Epoxide hydrolase 1. Further, the half-maximal inhibitory concentration (IC50) on Cytochrome P450 3A4 was greater than 10 µM; on Cytochrome P450 2C9, less than 10 µM; in assay [5] it was 0.01 µM; in assay [6] it was 3 µM.

For the compound `Cn1nccc1-c1ccc2c(c1)C(=O)CC1(CCN(C(=O)N[C@H]3C[C@@H]3c3ccccc3)CC1)O2` (racemic), the half-maximal inhibitory concentration (IC50) is greater than 10 µM in [1]; greater than 10 µM against Cytochrome P450 2D6; 28 µM in assay [7]; 4 µM in assay [2]; 0.004 µM in [3]; less than 0.001 µM in assay [4]. Also, the IC50 is 15 µM against Epoxide hydrolase 1, greater than 10 µM against Cytochrome P450 3A4, greater than 10 µM against Cytochrome P450 2C9 and 0.021 µM in assay [5].

Turning to `O=C1CC2(CCN(C(=O)NC3CCc4ccccc4C3)CC2)Oc2ccccc21` (racemic), the IC50 was 1 µM in [1]; greater than 10 µM against Cytochrome P450 2D6; 12 µM in [2]; 0.005 µM in assay [3]; 26 µM against Epoxide hydrolase 1; greater than 10 µM at Cytochrome P450 3A4. The half-maximal inhibitory concentration (IC50) was greater than 10 µM against Cytochrome P450 2C9, 0.039 µM in assay [5] and 9 µM in assay [6].

For `Cn1nccc1Nc1ccc2c(c1)C(=O)CC1(CCN(C(=O)N[C@H]3C[C@@H]3c3ccccc3)CC1)O2` (racemic), the IC50 is greater than 10 µM in [1]; greater than 10 µM against Cytochrome P450 2D6; 26 µM in assay [7]; 2 µM in assay [2]; 0.003 µM in assay [3]; less than 0.001 µM in [4]. The IC50 at Epoxide hydrolase 1 is greater than 100 µM; against Cytochrome P450 3A4, greater than 10 µM; at Cytochrome P450 2C9, 10 µM; in [5] it was 0.013 µM.

For `O=C1CC2(CCN(C(=O)N[C@H]3C[C@@H]3c3ccccc3)CC2)Oc2ccccc21` (relative stereo), the 50% inhibitory concentration (IC50) in [1] was greater than 10 µM; against Cytochrome P450 2D6, greater than 10 µM; in assay [2], 17 µM; in assay [3] it was 0.011 µM; in assay [4] (hek293), 0.003 µM; against Epoxide hydrolase 1 it was greater than 100 µM. Also, the figures for the IC50 (at Cytochrome P450 3A4; at Cytochrome P450 2C9; in [5]) were greater than 10 µM, greater than 10 µM and 0.029 µM, respectively.

In the case of `O=C(N[C@H]1C[C@@H]1c1ccccc1)N1CCC2(CCc3cc(F)ccc3O2)CC1` (racemic), the half-inhibitory concentration (IC50) was greater than 10 µM in [1]; greater than 10 µM against Cytochrome P450 2D6; 7 µM in [2]; 0.003 µM in assay [3]; less than 0.001 µM in [4]; greater than 100 µM at Epoxide hydrolase 1. For the same compound, the half-inhibitory concentration (IC50) on Cytochrome P450 3A4 was greater than 10 µM; at Cytochrome P450 2C9, less than 10 µM; in assay [5] it was 0.018 µM; in [6], 2 µM.

As for `O=C(N[C@H]1C[C@@H]1c1ccccc1)N1CCC2(CCc3ccccc3O2)CC1` (racemic), in the assay with Blood, the Activity amounted to 20%. The IC50 in assay [1] is greater than 10 µM; at Cytochrome P450 2D6, greater than 10 µM; in [2], 15 µM; in assay [3], 0.004 µM; at Epoxide hydrolase 1, greater than 100 µM; against Cytochrome P450 3A4 it was greater than 10 µM. Further, the figures for the IC50 (against Cytochrome P450 2C9; in assay [5]; in [6]) were less than 10 µM, 0.011 µM and 6 µM, respectively.

As to `O=C1CC2(CCN(C(=O)NC3CCc4ccccc4CC3)CC2)Oc2ccccc21`, the half-inhibitory concentration (IC50) came out at 5 µM in [2], 0.008 µM in assay [3], 0.028 µM in assay [5] and 5 µM in assay [6].

For the compound `O=C1CC2(CCN(C(=O)N[C@H]3C[C@@H]3c3ccccc3)CC2)Oc2ccccc21`, the IC50 in assay [1] is greater than 10 µM; against Cytochrome P450 2D6, greater than 10 µM; in assay [2], 14 µM; in [3] it was 0.003 µM; in [4], 0.003 µM; on Cytochrome P450 3A4, greater than 10 µM. Further, the IC50 against Cytochrome P450 2C9 is 10 µM; in assay [5] it was 0.009 µM; in [6] it was greater than 30 µM.

As to `O=C1CC2(CCN(C(=O)N[C@H]3C[C@@H]3c3ccccc3)CC2)Oc2ccc(-c3ccncc3)cc21` (racemic), the IC50 in [1] is greater than 10 µM; against Cytochrome P450 2D6 it was less than 10 µM; in assay [2], 0.2 µM; in assay [3], 0.001 µM; against Epoxide hydrolase 1, greater than 100 µM; against Cytochrome P450 3A4, less than 10 µM. Besides, the IC50 against Cytochrome P450 2C9 is less than 10 µM; in assay [5], 0.007 µM; in assay [6], 4 µM.

The compound `O=C(N[C@H]1C[C@@H]1c1ccccc1)N1CCC2(CC1)CC(O)c1ncccc1O2` (relative stereo) registered an Activity with Blood of 7.3%. The half-maximal inhibitory concentration (IC50) in assay [1] was greater than 10 µM; at Cytochrome P450 2D6, greater than 10 µM; in assay [2], greater than 30 µM; in assay [3], 0.008 µM; in assay [4], 0.008 µM; against Epoxide hydrolase 1, greater than 100 µM. Moreover, the IC50 was greater than 10 µM against Cytochrome P450 3A4, greater than 10 µM on Cytochrome P450 2C9, 0.031 µM in assay [5] and greater than 30 µM in assay [6].

As to `CS(=O)(=O)c1ccc2c(c1)CCC1(CCCN(C(=O)N[C@H]3C[C@@H]3c3ccccc3)CC1)O2` (relative stereo), the IC50 is greater than 10 µM in [1]; greater than 10 µM against Cytochrome P450 2D6; greater than 30 µM in assay [7]; 2 µM in [2]; 0.011 µM in assay [3]; 0.003 µM in assay [4]. In addition, the IC50 is 55 µM on Epoxide hydrolase 1, greater than 10 µM on Cytochrome P450 3A4, greater than 10 µM against Cytochrome P450 2C9 and 0.049 µM in assay [5].

Turning to `CS(=O)(=O)c1ccc2c(c1)C(=O)CC1(CCN(C(=O)N[C@@H]3CC[C@@H](c4ccccc4)C3)CC1)O2` (racemic), the IC50 in assay [1] was greater than 10 µM; against Cytochrome P450 2D6, greater than 10 µM; in assay [2], 3 µM; in assay [3], 0.007 µM; at Epoxide hydrolase 1 it was 10 µM; against Cytochrome P450 3A4, greater than 10 µM. Also, the IC50 is less than 10 µM against Cytochrome P450 2C9, 0.021 µM in assay [5] and 18 µM in assay [6].

Regarding `CS(=O)(=O)c1ccc2c(c1)CCC1(CCN(C(=O)N[C@H]3C[C@@H]3c3ccccc3)CC1)O2`, the IC50 is greater than 10 µM in assay [1]; greater than 10 µM against Cytochrome P450 2D6; 15 µM in assay [2]; 0.003 µM in assay [3]; less than 0.001 µM in assay [4]; 24 µM at Epoxide hydrolase 1. In addition, the IC50 was greater than 10 µM against Cytochrome P450 3A4, greater than 10 µM on Cytochrome P450 2C9, 0.023 µM in assay [5] and 28 µM in assay [6].

As to `O=C1CC2(CCN(C(=O)NC3CCc4ccccc43)CC2)Oc2ccccc21` (racemic), the IC50 was less than 10 µM in [1]; greater than 10 µM on Cytochrome P450 2D6; 6 µM in assay [2]; 0.02 µM in assay [3]; 0.03 µM in assay [4]; 28 µM on Epoxide hydrolase 1. The IC50 against Cytochrome P450 3A4 is greater than 10 µM; at Cytochrome P450 2C9, less than 10 µM; in assay [5], 0.035 µM; in assay [6], 6 µM.

The record behind these values is ChEMBL document CHEMBL1137005 (Bioorg Med Chem Lett, 2009).
